Measured values from PMC4278837, “A Cyclic Peptidic Serine Protease Inhibitor: Increasing Affinity by Increasing Peptide Flexibility” (PLoS ONE, 2014).
Like-named read-outs stand apart in the source and are kept apart here. Bridge positions count the residues as written; N and C are the ends. Square brackets hold non-standard residues; d marks the D form. Peptide text beside a SMILES is read from it. Phe(4-guanidino) = N=C(N)Nc1ccc(C[C@H](N)C(=O)O)cc1

Experiments:
huPA-H99Y R35A = biological target: T1, huPA-H99Y R35A (Homo sapiens, UniProt P00749, H272Y/R198A); assay: Ki for inhibition of huPA-H99Y-R35A, chromogenic substrate; assay type: biochemical; details: 37°C; means ± S.D.; read-out: K i for inhibition of huPA-H99Y-R35A
T1 construct: To ensure that the uPAs purified from the conditioned media were completely in the two-chain form, they were treated with plasmin; hexa-His (C); made in house; host or cells: HEK293 6E suspension cells
Source text: (§1) Determination of Ki values
(§2) The initial reaction velocities were monitored at an absorbance of 405 nm. The inhibition constants (K i) were subsequently determined from the non-linear regression analyses of plots for V i/V o versus [I]0, using Equation 2, derived under assumption of competitive inhibition:
(§3) [drawing 2] (2) where V i and V 0 are the reaction velocities in the presence and absence of inhibitor, respectively; [S]0 and [I]0 are the substrate and inhibitor concentrations, respectively; K M is K M for substrate hydrolysis by each protease. In Equation 2, it is assumed that [S]free ≈ [S]0 and [I]free ≈ [I]0.

huPA-H99Y V41A = biological target: T2, huPA-H99Y V41A (Homo sapiens, UniProt P00749, H272Y/V208A); assay: Ki for inhibition of huPA-H99Y-V41A, chromogenic substrate; assay type: biochemical; details: 37°C; means ± S.D.; read-out: K i for inhibition of huPA-H99Y-V41A
T2 construct: To ensure that the uPAs purified from the conditioned media were completely in the two-chain form, they were treated with plasmin; hexa-His (C); made in house; host or cells: HEK293 6E suspension cells
Source text: as §1, §2, §3

huPA-H99Y K143A = biological target: T3, huPA-H99Y K143A (Homo sapiens, UniProt P00749, H272Y/K320A); assay: Ki for inhibition of huPA-H99Y-K143A, chromogenic substrate; assay type: biochemical; details: 37°C; means ± S.D.; read-out: K i for inhibition of huPA-H99Y-K143A
T3 construct: To ensure that the uPAs purified from the conditioned media were completely in the two-chain form, they were treated with plasmin; hexa-His (C); made in house; host or cells: HEK293 6E suspension cells
Source text: as §1, §2, §3

muPA K41A = biological target: T4, muPA K41A (Mus musculus, UniProt P06869, K210A); assay: Ki for inhibition of muPA-K41A, chromogenic substrate; assay type: biochemical, murine; details: means ± S.D.; read-out: K i for inhibition of muPA-K41A
T4 construct: To ensure that the uPAs purified from the conditioned media were completely in the two-chain form, they were treated with plasmin; hexa-His (C); made in house; host or cells: HEK293 6E suspension cells
T4 sequence (P06869 180-433 K210A): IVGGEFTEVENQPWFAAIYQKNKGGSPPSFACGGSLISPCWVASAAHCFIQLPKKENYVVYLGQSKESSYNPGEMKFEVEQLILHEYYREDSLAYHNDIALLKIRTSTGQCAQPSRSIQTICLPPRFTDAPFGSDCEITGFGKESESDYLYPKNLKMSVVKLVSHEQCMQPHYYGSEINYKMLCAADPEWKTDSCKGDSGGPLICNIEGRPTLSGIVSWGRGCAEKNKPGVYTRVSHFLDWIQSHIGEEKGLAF
T4 sequence (P06869 21-178 partner limits assumed): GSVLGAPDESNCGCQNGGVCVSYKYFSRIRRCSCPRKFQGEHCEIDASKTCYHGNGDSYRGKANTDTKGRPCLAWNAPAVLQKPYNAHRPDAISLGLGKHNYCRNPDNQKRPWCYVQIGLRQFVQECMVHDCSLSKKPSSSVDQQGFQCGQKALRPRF
Source text: as §1, §2, §3

muPA Y99A = biological target: T5, muPA Y99A (Mus musculus, UniProt P06869, Y274A); assay: Ki for inhibition of muPA-Y99A, chromogenic substrate; assay type: biochemical, murine; details: means ± S.D.; read-out: K i for inhibition of muPA-Y99A
T5 construct: To ensure that the uPAs purified from the conditioned media were completely in the two-chain form, they were treated with plasmin; hexa-His (C); made in house; host or cells: HEK293 6E suspension cells
T5 sequence (P06869 180-433 Y274A): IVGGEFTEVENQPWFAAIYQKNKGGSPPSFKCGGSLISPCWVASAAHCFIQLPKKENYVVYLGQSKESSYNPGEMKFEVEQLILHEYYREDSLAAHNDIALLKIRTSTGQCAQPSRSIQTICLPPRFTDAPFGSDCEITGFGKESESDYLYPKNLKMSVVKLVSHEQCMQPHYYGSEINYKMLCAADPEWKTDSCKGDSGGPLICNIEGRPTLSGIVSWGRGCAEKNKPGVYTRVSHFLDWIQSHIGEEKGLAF
T5 sequence (P06869 21-178 partner limits assumed): as the sequence (P06869 21-178 partner limits assumed) above
Source text: as §1, §2, §3

muPA K143A = biological target: T6, muPA K143A (Mus musculus, UniProt P06869, K322A); assay: Ki for inhibition of muPA-K143A, chromogenic substrate; assay type: biochemical, murine; details: means ± S.D.; read-out: K i for inhibition of muPA-K143A
T6 construct: To ensure that the uPAs purified from the conditioned media were completely in the two-chain form, they were treated with plasmin; hexa-His (C); made in house; host or cells: HEK293 6E suspension cells
T6 sequence (P06869 180-433 K322A): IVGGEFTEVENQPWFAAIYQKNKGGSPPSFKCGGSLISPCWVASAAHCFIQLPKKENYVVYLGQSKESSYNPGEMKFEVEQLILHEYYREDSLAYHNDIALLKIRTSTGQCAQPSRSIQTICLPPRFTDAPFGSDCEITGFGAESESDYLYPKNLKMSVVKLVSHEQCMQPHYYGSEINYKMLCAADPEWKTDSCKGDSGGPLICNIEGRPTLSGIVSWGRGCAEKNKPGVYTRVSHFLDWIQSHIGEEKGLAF
T6 sequence (P06869 21-178 partner limits assumed): as the sequence (P06869 21-178 partner limits assumed) above
Source text: as §1, §2, §3

muPA S190A = biological target: T7, muPA S190A (Mus musculus, UniProt P06869, S373A); assay: Ki for inhibition of muPA-S190A, chromogenic substrate; assay type: biochemical, murine; details: means ± S.D.; read-out: K i for inhibition of muPA-S190A
T7 construct: To ensure that the uPAs purified from the conditioned media were completely in the two-chain form, they were treated with plasmin; hexa-His (C); made in house; host or cells: HEK293 6E suspension cells
T7 sequence (P06869 180-433 S373A): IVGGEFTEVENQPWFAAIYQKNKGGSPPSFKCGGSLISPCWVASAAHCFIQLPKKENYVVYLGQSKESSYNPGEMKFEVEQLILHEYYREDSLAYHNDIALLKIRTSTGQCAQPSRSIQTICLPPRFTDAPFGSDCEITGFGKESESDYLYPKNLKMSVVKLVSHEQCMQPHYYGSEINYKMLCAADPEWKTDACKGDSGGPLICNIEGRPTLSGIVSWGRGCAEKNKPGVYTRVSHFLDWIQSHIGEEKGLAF
T7 sequence (P06869 21-178 partner limits assumed): as the sequence (P06869 21-178 partner limits assumed) above
Source text: as §1, §2, §3

muPA V213T = biological target: T8, muPA V213T (Mus musculus, UniProt P06869, V396T); assay: Ki for inhibition of muPA-V213T, chromogenic substrate; assay type: biochemical, murine; details: means ± S.D.; read-out: K i for inhibition of muPA-V213T
T8 construct: To ensure that the uPAs purified from the conditioned media were completely in the two-chain form, they were treated with plasmin; hexa-His (C); made in house; host or cells: HEK293 6E suspension cells
T8 sequence (P06869 180-433 V396T): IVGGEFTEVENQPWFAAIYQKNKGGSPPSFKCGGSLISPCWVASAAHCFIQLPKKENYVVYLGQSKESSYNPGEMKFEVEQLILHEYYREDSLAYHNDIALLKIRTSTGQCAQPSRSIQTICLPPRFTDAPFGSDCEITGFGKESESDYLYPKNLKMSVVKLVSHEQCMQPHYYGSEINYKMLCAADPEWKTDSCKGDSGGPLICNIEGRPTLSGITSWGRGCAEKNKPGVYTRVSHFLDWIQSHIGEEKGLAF
T8 sequence (P06869 21-178 partner limits assumed): as the sequence (P06869 21-178 partner limits assumed) above
Source text: as §1, §2, §3

huPA-H99Y [1] = biological target: T9, huPA-H99Y (Homo sapiens, UniProt P00749, H272Y); assay: Surface plasmon resonance analysis of peptide binding to huPA-H99Y; details: SPR
T9 construct: To ensure that the uPAs purified from the conditioned media were completely in the two-chain form, they were treated with plasmin; hexa-His (C); made in house; host or cells: HEK293 6E suspension cells
Protocol: (§4) Surface plasmon resonance (SPR) analysis
(§5) To determine the equilibrium binding constants (KD), the association rate constants (kon) and dissociation rate constants (koff) for peptide binding to uPA, surface plasmon resonance analysis was performed on a Biacore T200 instrument (Biacore, Uppsala, Sweden). A CM5 chip was coupled with the uPA variant (muPA or huPAH99Y) to be analysed, by injecting a concentration of 30 µg/mL uPA in immobilization buffer (10 mM sodium acetate, pH 5.0), aiming for an immobilised level of approximately 500 response units (RU). Immobilisation was followed by surface blocking with ethanolamine. A reference cell was prepared in the same way, without coupling of uPA. Mupain-1 variants in HBS with 0.1% BSA, in a dilution series, were injected at a flow rate of 30 µL per min during 60 s at 25°C. Subsequently, the dissociation was monitored during 600 s. Kinetic constants (k on and k off) were calculated with the Biacore Evaluation Software, using the 1∶1 kinetic fit. The K D values were calculated as k off /k on.

muPA = biological target: T10, muPA (Mus musculus, UniProt P06869); assay: Surface plasmon resonance analysis of peptide binding to muPA; parameters: species or system murine; details: SPR, 25°C, pH 7.4
T10 construct: To ensure that the uPAs purified from the conditioned media were completely in the two-chain form, they were treated with plasmin; hexa-His (C); made in house; host or cells: HEK293 6E suspension cells
T10 sequence (P06869 180-433 limits assumed): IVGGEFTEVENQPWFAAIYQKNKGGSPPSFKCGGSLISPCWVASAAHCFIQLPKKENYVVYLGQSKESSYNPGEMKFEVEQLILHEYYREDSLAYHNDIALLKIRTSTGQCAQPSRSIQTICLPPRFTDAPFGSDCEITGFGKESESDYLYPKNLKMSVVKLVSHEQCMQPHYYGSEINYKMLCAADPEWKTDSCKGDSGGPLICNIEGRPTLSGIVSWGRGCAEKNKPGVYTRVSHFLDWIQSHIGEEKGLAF
T10 sequence (P06869 21-178 partner limits assumed): as the sequence (P06869 21-178 partner limits assumed) above
Protocol: as §4, §5

huPA-H99Y [2] = biological target: T9, huPA-H99Y; details: 37°C; means ± S.D.; starred values reproduced from previous publications; ref Andersen et al., 2008; Hosseini et al., 2011; read-out: K i for inhibition of huPA-H99Y; cited from earlier work
muPA wt [3] = biological target: T11, muPA wt (Mus musculus, UniProt P06869); details: means ± S.D.; starred values reproduced from previous publications; ref Andersen et al., 2008; Hosseini et al., 2011; read-out: K i for inhibition of muPA wt; cited from earlier work
T11 construct: To ensure that the uPAs purified from the conditioned media were completely in the two-chain form, they were treated with plasmin; hexa-His (C); made in house; host or cells: HEK293 6E suspension cells
T11 sequence (P06869 180-433 limits assumed): as the sequence (P06869 180-433 limits assumed) above
T11 sequence (P06869 21-178 partner limits assumed): as the sequence (P06869 21-178 partner limits assumed) above

huPA-H99Y Q192A = huPA-H99Y Q192A (Homo sapiens, UniProt P00749, H272Y/Q373A); assay: Ki for inhibition of huPA-H99Y-Q192A, chromogenic substrate; assay type: biochemical; parameters: To ensure that the uPAs purified from the conditioned media were completely in the two-chain form, they were treated with plasmin; hexa-His (C); made in house; host or cells: HEK293 6E suspension cells; details: 37°C; means ± S.D.; read-out: K i for inhibition of huPA-H99Y-Q192A
Source text: as §1, §2, §3

huPA-H99Y [4] = biological target: T9, huPA-H99Y; assay: Ki for inhibition of huPA-H99Y, chromogenic substrate S-2444; assay type: biochemical; details: 37°C; means ± S.D.; read-out: K i for inhibition of huPA-H99Y
Source text: as §1, §2, §3

muPA wt [5] = biological target: T11, muPA wt; assay: Ki for inhibition of muPA wt, chromogenic substrate; assay type: biochemical, murine; details: means ± S.D.; read-out: K i for inhibition of muPA wt
Source text: as §1, §2, §3

huPA-H99Y [6] = biological target: T12, huPA-H99Y (Homo sapiens, UniProt P00749, C299A/H272Y/N322Q); assay: Isothermal titration calorimetry for binding to huPA-H99Y catalytic domain; details: ITC, 25°C, pH 7.4
T12 construct: recombinant uPA catalytic domain (residues 159–411), harbouring a H99Y mutation; made in house; host or cells: Pichia pastoris X-33 (secreted)
Protocol: For these experiments, we used the catalytic domain of huPA-H99Y expressed in and purified from Pichia pastoris strain X-33 (see above). The protein was dissolved in and dialysed against a buffer of 20 mM sodium phosphate, pH 7.4, 140 mM NaCl. The protein concentration was determined by absorbance at 280 nm, using an extinction coefficient of 43810 M^−1cm^−1. The peptides were dissolved in the above-mentioned buffer. All isothermal titration calorimetry experiments were performed with a MicroCal^TM ITC200 instrument equilibrated to a temperature of 25°C (298oK). The concentration of uPA-H99Y catalytic domain used in the 200 µl sample cell was 5–50 µM, depending on the affinity of the ligand. Titrations were performed by injecting 2 µl of the ligand until the total syringe volume of 40 µl was spent. Titration of ligand into buffer was performed to obtain buffer correction. The equilibrium association constant KA and the reaction enthalpy ΔH were calculated by fitting the integrated titration peaks using a one-binding-site model in the ITC ORIGIN7 programme package. The following formulas for Gibbs free energy ΔG were used to analyse the measured energies
[drawing 4] (4) where R is the gas constant and T the absolute temperature. ΔS, the entropic change during the reaction, was calculated using equations 3 and 4 and the measured K A and ΔH values.

[7] = 25°C, pH 7.4, calculated as k off/k on, read-out: K D, huPA-H99Y

| Ki (huPA-H99Y R35A) | Ki (huPA-H99Y V41A) | Ki (muPA K41A) | Ki (muPA Y99A) | Ki (muPA K143A) | Ki (muPA S190A) | Ki (muPA V213T) | k off, huPA-H99Y (huPA-H99Y [1]; 25°C, pH 7.4) | k on, huPA-H99Y (huPA-H99Y [1]; 25°C, pH 7.4) | Kd (huPA-H99Y [1]; [7]) | k off, muPA (muPA) | k on, muPA (muPA) | Ki (huPA-H99Y Q192A) | Structure (SMILES) | further results |
| --- | --- | --- | --- | --- | --- | --- | --- | --- | --- | --- | --- | --- | --- | --- |
| 3.26 ± 1.04 µM | 1.6 ± 0.54 µM | 1.72 ± 0.24 µM | 5.2 ± 0.06 µM | 1 ± 0.04 µM | 2.3 ± 0.46 µM | 0.086 ± 0.03 µM | 24.6±1.2 (4) s^-1, ×10^2 | 2.06±0.15 (4) M^-1s^-1, ×10^-5 | 1.21 ± 0.13 µM | 1.92±0.63 (4) s^−1, ×10^2 | 1.56±0.95 (4) M^−1s^−1, ×10^−5 | 2.35 ± 0.74 µM | CC(=O)N[C@H]1CSSC[C@@H](C(N)=O)NC(=O)[C@H](CC(=O)O)NC(=O)[C@H](CC(C)C)NC(=O)[C@H](Cc2ccc(O)cc2)NC(=O)[C@H](Cc2ccc(NC(=N)N)cc2)NC(=O)[C@H](CO)NC(=O)[C@H](Cc2ccc(O)cc2)NC(=O)[C@H](C)NC(=O)[C@@H]2CCCN2C1=O [Mupain-1-12, CPAYS[4-guanidino-phenyl-alanine]YLDC] (Ac-CPAYS[Phe(4-guanidino)]YLDC-NH2; disulfide 1-10) | Ki (huPA-H99Y K143A): 2.14 ± 0.78 µM; Kd (huPA-H99Y [1]; huPA-H99Y immobilized on CM5 chip, single example (S3 Fig), read-out: KD of fitted curve, representative sensorgram): 1.32 µM; koff (huPA-H99Y [1]; huPA-H99Y immobilized on CM5 chip, single example (S3 Fig), read-out: koff of fitted curve, representative sensorgram): 0.248 s⁻¹; kon (huPA-H99Y [1]; huPA-H99Y immobilized on CM5 chip, single example (S3 Fig), read-out: kon of fitted curve, representative sensorgram): 188000 M⁻¹ s⁻¹; Ki (huPA-H99Y [2]): 1.86 ± 0.74 µM; Ki (muPA wt [3]): 0.28 ± 0.02 µM |
| 0.231 ± 0.078 µM | 0.478 ± 0.137 µM | 0.091 ± 0.007 µM | 5.89 ± 1.31 µM | 1 ± 0.03 µM | 3.52 ± 0.5 µM | 0.166 ± 0.075 µM | 7.94±0.39 (3) s^-1, ×10^2 | 5.93±0.33 (3) M^-1s^-1, ×10^-5 | 0.134 ± 0.002 µM | 3.94±0.30 (3) s^−1, ×10^2 | 2.42±1.01 (3) M^−1s^−1, ×10^−5 | 0.438 ± 0.079 µM | CC(=O)N[C@H]1CSSC[C@@H](C(N)=O)NC(=O)[C@H](C)NC(=O)[C@H](CC(C)C)NC(=O)[C@H](Cc2ccc(O)cc2)NC(=O)[C@H](Cc2ccc(NC(=N)N)cc2)NC(=O)[C@H](CO)NC(=O)[C@H](Cc2ccc(O)cc2)NC(=O)[C@H](C)NC(=O)[C@@H]2CCCN2C1=O [Mupain-1-12 D9A, CPAYS[4-guanidino-phenyl-alanine]YLAC] (Ac-CPAYS[Phe(4-guanidino)]YLAC-NH2; disulfide 1-10; N-terminus assumed) | Ki (huPA-H99Y [4]): 0.186 ± 0.036 µM; Ki (muPA wt [5]): 0.19 ± 0.01 µM; Kd (muPA; calculated as k off/k on, read-out: K D, muPA): 0.177 ± 0.051 µM; Kd (huPA-H99Y [6]): 0.138 ± 0.047 µM; N (huPA-H99Y [6]): 0.88±0.01 (3); TΔS (huPA-H99Y [6]): −18.9±5.1 (3) ^1 kJ/mole; ΔG (huPA-H99Y [6]): −39.2±0.8 (3) ^1 kJ/mole; ΔH (huPA-H99Y [6]): −60.1±5.4 (3) ^1 kJ/mole |
